{"source": "paper PMC6021502", "about": "“Cannabigerol Action at Cannabinoid CB1 and CB2 Receptors and at CB1–CB2 Heteroreceptor Complexes” (Frontiers in Pharmacology, 2018)", "key": {"CB2R [1]": {"target": "CB2R", "conditions": "cited from earlier work"}, "[2]": {"target": "T1, CB2R in a CB1–CB2 receptor heteromer context (Homo sapiens, UniProt P34972)", "T1 construct": "host or cells: HEK-293T, transient co-transfection (PEI)", "T1 sequence (P34972 whole entry)": "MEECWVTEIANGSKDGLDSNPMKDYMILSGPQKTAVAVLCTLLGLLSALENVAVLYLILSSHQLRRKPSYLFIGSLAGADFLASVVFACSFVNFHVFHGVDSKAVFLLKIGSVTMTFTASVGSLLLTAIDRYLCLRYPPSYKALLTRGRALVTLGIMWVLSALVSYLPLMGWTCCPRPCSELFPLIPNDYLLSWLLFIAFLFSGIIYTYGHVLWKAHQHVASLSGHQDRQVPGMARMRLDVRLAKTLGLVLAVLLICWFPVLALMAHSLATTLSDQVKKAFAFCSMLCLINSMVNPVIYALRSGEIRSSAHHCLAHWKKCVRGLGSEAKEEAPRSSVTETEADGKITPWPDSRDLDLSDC", "T1 sequence (P21554 whole entry partner)": "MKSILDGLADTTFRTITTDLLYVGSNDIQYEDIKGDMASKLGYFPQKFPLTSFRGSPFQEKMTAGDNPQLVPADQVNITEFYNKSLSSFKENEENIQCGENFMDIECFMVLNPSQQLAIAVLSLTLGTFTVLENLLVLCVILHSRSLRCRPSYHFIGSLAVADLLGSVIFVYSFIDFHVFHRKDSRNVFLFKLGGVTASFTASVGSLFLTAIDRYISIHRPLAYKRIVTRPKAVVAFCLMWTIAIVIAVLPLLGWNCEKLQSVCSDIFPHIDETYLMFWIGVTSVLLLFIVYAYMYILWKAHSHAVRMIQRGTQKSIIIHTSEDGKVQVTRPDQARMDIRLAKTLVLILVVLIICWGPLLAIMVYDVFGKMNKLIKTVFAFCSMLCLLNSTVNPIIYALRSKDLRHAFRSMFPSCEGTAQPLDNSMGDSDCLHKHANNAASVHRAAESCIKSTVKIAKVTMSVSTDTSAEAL", "assay": "Homogeneous HTRF competition binding in living HEK-293T cells expressing SNAP-CB2R and CB1R", "conditions": "20 nM fluorescent ligand, read-out: Ki, HTRF competition of fluorophore-conjugated CM-157 in the presence of CB1R"}, "experimental colitis": {"test_system": "experimental colitis", "set-up": "method as in Borrelli et al., 2013", "conditions": "model of inflammatory bowel disease; ref Borrelli et al., 2013; cited from earlier work"}, "CB2R [3]": {"test_system": "T2, CB2R", "T2 construct": "expressed in transfected cells; host or cells: HEK-293T, transient transfection (PEI)", "assay": "Label-free dynamic mass redistribution (DMR) in HEK-293T cells", "type": "cell-based, human", "protocol": "(§1) HEK-293T cells were grown in DMEM medium (Gibco, Paisley, Scotland, United Kingdom) supplemented with 2 mM L-glutamine, 100 U/mL penicillin/streptomycin, MEM Non-Essential Amino Acids Solution (1/100) and 5% (v/v) heat inactivated Foetal Bovine Serum (FBS) (Invitrogen, Paisley, Scotland, United Kingdom). […] Cells were transiently transfected with the PEI (Polyethylenimine, Sigma, St. Louis, MO, United States) method as previously described ([Medrano et al., 2017]; [Navarro et al., 2018b]) and used for functional assays 48 h later (unless otherwise stated).\n(§2) Cell mass redistribution induced upon receptor activation was detected by illuminating the underside of a biosensor with polychromatic light and measuring the changes in the wavelength of the reflected monochromatic light. The magnitude of this wavelength shift (in picometers) is directly proportional to the amount of DMR. HEK-293T cells were seeded in 384-well sensor microplates to obtain 70–80% confluent monolayers constituted by approximately 10,000 cells per well. Previous to the assay, cells were washed twice with assay buffer (HBSS with 20 mM HEPES, pH 7.15) and incubated for 2 h with assay-buffer containing 0.1% DMSO (24°C, 30 μL/well). Hereafter, the sensor plate was scanned and a baseline optical signature was recorded for 10 min before adding 10 μL of CBG for 30 min followed by the addition of 10 μL of specific agonists; all test compounds were dissolved in assay buffer. The cell signaling signature was determined using an EnSpire® Multimode Plate Reader (PerkinElmer, Waltham, MA, United States) by a label-free technology. Then, DMR responses were monitored for at least 5,000 s. Results were analyzed using EnSpire Workstation Software v 4.10."}, "CB1R [4]": {"test_system": "T3, CB1R", "T3 construct": "expressed in transfected cells; host or cells: HEK-293T, transient transfection (PEI)", "assay": "Label-free dynamic mass redistribution (DMR) in HEK-293T cells", "type": "cell-based, human", "protocol": "as §1, §2"}, "[5]": {"test_system": "T4, CB1R and CB2R (CB1–CB2 heteroreceptor complexes)", "T4 construct": "expressed in transfected cells; host or cells: HEK-293T, transient co-transfection (PEI)", "assay": "Label-free dynamic mass redistribution (DMR) in HEK-293T cells co-expressing both receptors", "type": "cell-based, human", "protocol": "as §1\nas §2, with “HEK-293T cells were seeded in 384-well sensor microplates to obtain 70–80% confluent monolayers constituted by approximately 10,000 cells per well. Previous to the assay, cells were washed twice with assay buffer (HBSS with 20 mM HEPES, pH 7.15) and incubated for 2 h with assay-buffer containing 0.1% DMSO (24°C, 30 μL/well).” left out"}, "5HT1A receptor": {"test_system": "5HT1A receptor", "set-up": "method as in Cascio et al., 2010", "conditions": "stimulation by 1 μM 8-OH-DPAT; ref Cascio et al., 2010; cited from earlier work"}, "TRPM8 channels": {"test_system": "TRPM8 channels", "set-up": "method as in De Petrocellis et al., 2011", "conditions": "ref De Petrocellis et al., 2011; read-out: IC50, antagonist of TRPM8 channels; cited from earlier work"}, "[6]": {"test_system": "T4, CB1R and CB2R (CB1–CB2 heteroreceptor complexes)", "assay": "β-arrestin 2 recruitment (BRET) in HEK-293T cells co-expressing both receptors", "type": "cell-based, human", "protocol": "as §1\nArrestin recruitment was determined as previously described ([Medrano et al., 2017]; [Navarro et al., 2018b]). Briefly, BRET experiments were performed in HEK-293T cells 48 h after transfection with the cDNA corresponding to the CB2R-YFP or CB1R-YFP and 1 μg cDNA corresponding to β-arrestin 2-Rluc. […] After 1 min of adding coelenterazine H, BRET between β-arrestin 2-Rluc and receptor-YFP was determined and quantified. The readings were collected using a Mithras LB 940 (Berthold Technologies, Bad Wildbad, Germany) that allows the integration of the signals detected in the short-wavelength filter at 485 nm and the long-wavelength filter at 530 nm. To quantify protein-RLuc expression luminescence readings were also performed 10 min of adding 5 μM coelenterazine H."}, "CB2R [7]": {"test_system": "T2, CB2R", "assay": "cAMP determination in HEK-293T cells", "type": "cell-based, human", "protocol": "as §1\n(§3) Signaling experiments have been performed as previously described ([Navarro et al., 2010], [2016], [2018b]; [Hinz et al., 2018]). Two hours before initiating the experiment, HEK-293T cell-culture medium was replaced by serum-starved DMEM medium. Then, cells were detached, resuspended in growing medium containing 50 μM zardaverine and placed in 384-well microplates (2,500 cells/well). Cells were pretreated (15 min) with CBG -or vehicle- and stimulated with agonists (15 min) before adding 0.5 μM forskolin or vehicle. Readings were performed after 15 min incubation at 25°C. HTRF energy transfer measures were performed using the Lance Ultra cAMP kit (PerkinElmer, Waltham, MA, United States). Fluorescence at 665 nm was analyzed in a PHERAstar Flagship microplate reader equipped with an HTRF optical module (BMG Lab Technologies, Offenburg, Germany)."}, "CB1R [8]": {"test_system": "T3, CB1R", "assay": "cAMP determination in HEK-293T cells", "type": "cell-based, human", "protocol": "as §1, §3"}, "human CB2 receptor": {"target": "T5, human CB2 receptor (Homo sapiens, UniProt P34972)", "T5 construct": "expressed in transfected cells; membranes", "T5 sequence (P34972 whole entry)": "as the sequence (P34972 whole entry) above", "assay": "[3H]-WIN-55,212-2 competition binding, CHO membranes"}, "SNAP-CB2R": {"target": "T6, SNAP-CB2R (Homo sapiens, UniProt P34972)", "T6 construct": "host or cells: HEK-293T, transient transfection (PEI)", "T6 sequence (P34972 whole entry)": "as above", "assay": "Homogeneous HTRF competition binding in living HEK-293T cells (fluorophore-conjugated CM-157)", "conditions": "living HEK-293T cells expressing SNAP-CB2R, 20 nM fluorescent ligand"}, "[9]": {"conditions": "100 nM or 1 μM CBG pretreatment, 100 nM AEA or JWH133, CB2R"}, "[10]": {"conditions": "CBG alone, 1 nM to 10 μM, CB2R-expressing cells"}, "[11]": {"conditions": "CBG alone, 1 nM to 10 μM, CB1R-expressing cells"}, "[12]": {"conditions": "100 nM CBG pretreatment, cells co-expressing CB1R and CB2R"}, "[13]": {"conditions": "CBG alone, dose-effect, cells expressing CB1R and CB2R"}}, "note": "Read-outs that look alike come from different tables or passages of the source.", "data": [{"smiles": "CCCCCc1cc(O)c(C/C=C(\\C)CCC=C(C)C)c(O)c1", "note": "[CBG, cannabigerol]", "values": [{"measurement": "Ki", "setting": "CB2R [1]; CHO cells expressing the human CB2R, preliminary results, ref Gauson et al., 2007, Pertwee, 2008", "result": "300 to 500", "unit": "nM"}, {"measurement": "Ki", "setting": "CB2R [1]; CHO cells expressing the human receptor, ref Cascio et al., 2010", "result": 2600, "unit": "nM"}, {"measurement": "Ki", "setting": "[2]", "result": 56, "unit": "nM"}, {"measurement": "Effect on experimental colitis", "setting": "experimental colitis", "result": "reduce the histological and molecular changes of experimental colitis"}, {"measurement": "Effect on AEA and JWH133 effects on label-free DMR", "setting": "CB2R [3]; [9]", "result": "reduced the effects of AEA and JWH133"}, {"measurement": "DMR signal", "setting": "CB2R [3]; [10]", "result": "small and similar to that exerted in CB1R-expressing cells"}, {"measurement": "Effect on agonist-induced DMR", "setting": "CB1R [4]; 100 nM or 1 μM CBG, 100 nM AEA or ACEA, CB1R", "result": "reduced the effect of the agonists"}, {"measurement": "DMR signal", "setting": "CB1R [4]; [11]", "result": "slight effect"}, {"measurement": "Effect on agonist actions on DMR read-outs", "setting": "[5]; [12]", "result": "negative modulation of the ACEA effect on ERK1/2 phosphorylation and DMR, and of the AEA effect on DMR read-outs"}, {"measurement": "DMR signal", "setting": "[5]; [13]", "result": "additive"}, {"measurement": "Effect on [35S]GTPγS binding upon 5HT1A stimulation", "setting": "5HT1A receptor", "result": "able to antagonize"}, {"measurement": "IC50", "setting": "TRPM8 channels", "result": 160, "unit": "nM"}, {"measurement": "Effect on agonist actions on β-arrestin recruitment", "setting": "[6]; [12]", "result": "negligible"}, {"measurement": "β-arrestin recruitment", "setting": "[6]; [13]", "result": "negative cross-talk was still evident"}, {"measurement": "Effect on AEA and JWH133 effects on forskolin-induced cAMP levels", "setting": "CB2R [7]; [9]", "result": "reduced the effects of AEA and JWH133"}, {"measurement": "Effect on forskolin-induced cAMP levels", "setting": "CB2R [7]; [10]", "result": "small and similar to that exerted in CB1R-expressing cells"}, {"measurement": "Effect on AEA and ACEA induced effects on forskolin-induced cAMP", "setting": "CB1R [8]; 100 nM or 1 μM CBG pretreatment, 100 nM AEA or ACEA, CB1R", "result": "significant decrease"}, {"measurement": "Effect on forskolin induced cAMP levels", "setting": "CB1R [8]; [11]", "result": "small decrease"}, {"measurement": "Ki", "setting": "human CB2 receptor; radioligand 3 nM [3H]-WIN-55,212-2, CHO membranes, read-out: CB2 – Ki", "result": 2660, "unit": "nM"}, {"measurement": "Ki", "setting": "human CB2 receptor; radioligand [3H]-WIN-55,212-2, read-out: Ki, competition of [3H]-WIN-55,212-2 binding to CB2R", "result": 2700, "unit": "nM"}, {"measurement": "Ki", "setting": "SNAP-CB2R", "result": 152, "unit": "nM"}]}]}
